Results from patent US9370515B2, “Mixed lineage kinase inhibitors and method of treatments” (CALIFIA BIO, INC., priority 2013, dated 2016).

Molecular target: MLK-3 (Homo sapiens, UniProt Q16584)
Assay: Biochemical assay for the inhibition of kinase activity for MLK-3 (33P-ATP, HOTSPOT filter binding)
Conditions: activated MLK-3 20 nM, ATP 50 μM, myelin basic protein 20 μM, 20 minutes room temperature
Method in brief: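 Activated MLK-3 (20 nM) with myelin basic protein (20 μM) in 20 mM Hepes pH 7.5, MgCl2, EGTA, Brij35, BSA, Na3VO4, DTT, 1% DMSO. Started with 33P-ATP at 50 μM ATP, 20 min at room temperature; % activity by HOTSPOT filter binding.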

MLK-3, sequence (Q16584 whole entry): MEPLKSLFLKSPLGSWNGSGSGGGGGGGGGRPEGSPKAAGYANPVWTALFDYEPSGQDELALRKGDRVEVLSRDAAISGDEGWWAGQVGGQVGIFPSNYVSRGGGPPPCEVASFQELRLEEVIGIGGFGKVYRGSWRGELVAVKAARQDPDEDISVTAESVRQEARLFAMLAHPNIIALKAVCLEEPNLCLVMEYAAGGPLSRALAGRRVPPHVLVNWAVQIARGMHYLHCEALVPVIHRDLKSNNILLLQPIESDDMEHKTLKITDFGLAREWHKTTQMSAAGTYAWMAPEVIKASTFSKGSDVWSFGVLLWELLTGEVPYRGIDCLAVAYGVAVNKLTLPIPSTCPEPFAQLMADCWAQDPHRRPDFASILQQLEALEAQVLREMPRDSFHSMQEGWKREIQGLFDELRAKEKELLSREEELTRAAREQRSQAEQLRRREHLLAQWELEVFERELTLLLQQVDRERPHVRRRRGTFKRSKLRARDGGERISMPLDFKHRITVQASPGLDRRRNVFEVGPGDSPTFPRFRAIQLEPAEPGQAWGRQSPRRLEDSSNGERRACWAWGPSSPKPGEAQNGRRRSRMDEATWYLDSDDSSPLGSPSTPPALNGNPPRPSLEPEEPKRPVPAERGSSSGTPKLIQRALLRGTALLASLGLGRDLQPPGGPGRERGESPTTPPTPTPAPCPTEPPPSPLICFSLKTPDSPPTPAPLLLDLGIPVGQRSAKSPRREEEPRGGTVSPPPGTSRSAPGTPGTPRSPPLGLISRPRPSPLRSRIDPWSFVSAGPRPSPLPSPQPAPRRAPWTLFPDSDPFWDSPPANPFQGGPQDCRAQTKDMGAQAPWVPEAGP

Row | Compound | IC50
1 | O[C@H]1CC[C@H](Nc2ccc3ncc(-c4ccsc4)n3n2)CC1 [Compound 180, trans-(3-(thiophen-3-yl)imidazo[1,2-b]pyridazin-6-ylamino)cyclohexanol] | < 5000 nM
2 | CCOc1ccc(Nc2ccc3ncc(-c4cc5cccc(OC)c5s4)n3n2)cc1OC [Compound 181, N-(4-ethoxy-3-methoxyphenyl)-3-(7-methoxybenzo[b]thiophen-2-yl)imidazo[1,2-b]pyridazin-6-amine] | 100 to 500 nM
3 | CCCOc1ccc(Nc2ccc3ncc(-c4cc5cccc(OC)c5s4)n3n2)cc1OC [Compound 182, N-(3-methoxy-4-propoxyphenyl)-3-(7-methoxybenzo[b]thiophen-2-yl)imidazo[1,2-b]pyridazin-6-amine] | < 5000 nM
4 | COc1cc(Nc2ccc3ncc(-c4cc5cccc(OC)c5s4)n3n2)ccc1OC(F)F [Compound 183, N-(4-(difluoromethoxy)-3-methoxyphenyl)-3-(7-methoxybenzo[b]thiophen-2-yl)imidazo[1,2-b]pyridazin-6-amine] | < 5000 nM
5 | COc1cc(Nc2ccc3ncc(-c4cc5cccc(OC)c5s4)n3n2)ccc1OC(F)(F)F [Compound 184, N-(3-methoxy-4-(trifluoromethoxy)phenyl)-3-(7-methoxybenzo[b]thiophen-2-yl)imidazo[1,2-b]pyridazin-6-amine] | < 5000 nM
6 | COc1ccc(Nc2ccc3ncc(-c4cc5cccc(OC)c5s4)n3n2)cc1OC(F)(F)F [Compound 185, N-(4-methoxy-3-(trifluoromethoxy)phenyl)-3-(7-methoxybenzo[b]thiophen-2-yl)imidazo[1,2-b]pyridazin-6-amine] | < 5000 nM
7 | CCOc1cccc2cc(-c3cnc4ccc(Nc5ccc(OC)c(OC)c5)nn34)sc12 [Compound 186, 3-(7-ethoxybenzo[b]thiophen-2-yl)-N-(3,4-dimethoxyphenyl)imidazo[1,2-b]pyridazin-6-amine] | 100 to 500 nM
8 | COc1ccc(Nc2ccc3ncc(-c4cc5cccc(OC(F)F)c5s4)n3n2)cc1OC [Compound 187, 3-(7-(difluoromethoxy)benzo[b]thiophen-2-yl)-N-(3,4-dimethoxyphenyl)imidazo[1,2-b]pyridazin-6-amine] | 500 to 1000 nM
9 | COc1ccc(Nc2ccc3ncc(-c4cc5cccc(OC(F)(F)F)c5s4)n3n2)cc1OC [Compound 188, N-(3,4-dimethoxyphenyl)-3-(7-(trifluoromethoxy)benzo[b]thiophen-2-yl)imidazo[1,2-b]pyridazin-6-amine] | < 5000 nM
10 | COc1cc(Nc2ccc3ncc(-c4cc5cccc(OC(F)(F)F)c5s4)n3n2)ccc1OC(F)F [Compound 189, N-(4-(difluoromethoxy)-3-methoxyphenyl)-3-(7-(trifluoromethoxy)benzo[b]thiophen-2-yl)imidazo[1,2-b]pyridazin-6-amine] | < 5000 nM
11 | COc1cc(Nc2ccc3ncc(-c4cc5cccc(OC(F)(F)F)c5s4)n3n2)ccc1OC(F)(F)F [Compound 190, N-(3-methoxy-4-(trifluoromethoxy)phenyl)-3-(7-(trifluoromethoxy)benzo[b]thiophen-2-yl)imidazo[1,2-b]pyridazin-6-amine] | < 5000 nM
12 | COc1ccc(Nc2ccc3ncc(-c4cc5cc(C)ccc5s4)n3n2)cc1OC [Compound 191, N-(3,4-dimethoxyphenyl)-3-(5-methylbenzo[b]thiophen-2-yl)imidazo[1,2-b]pyridazin-6-amine] | < 5000 nM
13 | Cc1ccc2sc(-c3cnc4ccc(N[C@H]5CC[C@H](O)CC5)nn34)cc2c1 [Compound 192, trans-4-(3-(5-methylbenzo[b]thiophen-2-yl)imidazo[1,2-b]pyridazin-6-ylamino)cyclohexanol] | 500 to 1000 nM
14 | COc1ccc2c(c1)cc(-c1cnc3ccc(Nc4ccc(OC)c(OC)c4)nn13)n2C [Compound 193, 3-(5-methoxy-1-methyl-1H-indol-2-yl)-N-(3,4-dimethoxyphenyl)imidazo[1,2-b]pyridazin-6-amine] | < 5000 nM
15 | COc1ccc2c(c1)cc(-c1cnc3ccc(N[C@H]4CC[C@H](O)CC4)nn13)n2C [Compound 194, trans-4-(3-(5-methoxy-1-methyl-1H-indol-2-yl)imidazo[1,2-b]pyridazin-6-ylamino)cyclohexanol] | < 5000 nM
16 | COc1ccc(Nc2ccc3ncc(-c4cc5cccc(C)c5[nH]4)n3n2)cc1OC [Compound 195, N-(3,4-dimethoxyphenyl)-3-(7-methyl-1H-indol-2-yl)imidazo[1,2-b]pyridazin-6-amine] | < 5000 nM
17 | Cc1cccc2cc(-c3cnc4ccc(N[C@H]5CC[C@H](O)CC5)nn34)[nH]c12 [Compound 196, trans-4-(3-(7-methyl-1H-indol-2-yl)imidazo[1,2-b]pyridazin-6-ylamino)cyclohexanol] | 100 to 500 nM
18 | COc1ccc(Nc2ccc3ncc(-c4cc5cc(OC)c(OC)cc5[nH]4)n3n2)cc1OC [Compound 197, 3-(5,6-dimethoxy-1H-indol-2-yl)-N-(3,4-dimethoxyphenyl)imidazo[1,2-b]pyridazin-6-amine] | 100 to 500 nM
19 | COc1ccc2[nH]c(-c3cnc4ccc(N[C@H]5CC[C@H](OC)CC5)nn34)cc2c1 [Compound 198, trans-3-(5-methoxy-1H-indol-2-yl)-N-(4-methoxycyclohexyl)imidazo[1,2-b]pyridazin-6-amine] | < 5000 nM

Row | Compound | IC50
20 | COc1cccc2cc(-c3cnc4ccc(N[C@H]5CC[C@H](OC)CC5)nn34)[nH]c12 [Compound 199, trans-3-(7-methoxy-1H-indol-2-yl)-N-(4-methoxycyclohexyl)imidazo[1,2-b]pyridazin-6-amine] | < 5000 nM
21 | COc1cccc2cc(-c3cnc4ccc(N[C@H]5CC[C@H](OC)CC5)nn34)sc12 [Compound 200, trans-3-(7-methoxybenzo[b]thiophen-2-yl)-N-(4-methoxycyclohexyl)imidazo[1,2-b]pyridazin-6-amine] | 500 to 1000 nM
22 | COc1cc2cc(-c3cnc4ccc(N[C@H]5CC[C@H](OC)CC5)nn34)sc2cc1OC [Compound 201, trans-3-(5,6-dimethoxybenzo[b]thiophen-2-yl)-N-(4-methoxycyclohexyl)imidazo[1,2-b]pyridazin-6-amine] | 100 to 500 nM
23 | COc1ccc(Nc2ccc3ncc(-c4cc5cccc(C)c5s4)n3n2)cc1OC [Compound 202, N-(3,4-dimethoxyphenyl)-3-(7-methylbenzo[b]thiophen-2-yl)imidazo[1,2-b]pyridazin-6-amine] | < 5000 nM
24 | Cc1cccc2cc(-c3cnc4ccc(N[C@H]5CC[C@H](O)CC5)nn34)sc12 [Compound 203, trans-4-(3-(7-methylbenzo[b]thiophen-2-yl)imidazo[1,2-b]pyridazin-6-ylamino)cyclohexanol] | 100 to 500 nM
25 | COc1ccc(Nc2ccc3ncc(-c4cc5cccnc5s4)n3n2)cc1OC [Compound 204, N-(3,4-dimethoxyphenyl)-3-(thieno[2,3-b]pyridin-2-yl)imidazo[1,2-b]pyridazin-6-amine] | 100 to 500 nM
26 | O[C@H]1CC[C@H](Nc2ccc3ncc(-c4cc5cccnc5s4)n3n2)CC1 [Compound 205, trans-4-(3-(thieno[2,3-b]pyridin-2-yl)imidazo[1,2-b]pyridazin-6-ylamino)cyclohexanol] | 100 to 500 nM
27 | COc1ccc(Nc2ccc3ncc(-c4cc5cnccc5s4)n3n2)cc1OC [Compound 206, N-(3,4-dimethoxyphenyl)-3-(thieno[3,2-c]pyridin-2-yl)imidazo[1,2-b]pyridazin-6-amine] | < 100 nM
28 | O[C@H]1CC[C@H](Nc2ccc3ncc(-c4cc5cnccc5s4)n3n2)CC1 [Compound 207, trans-(3-(thieno[3,2-c]pyridin-2-yl)imidazo[1,2-b]pyridazin-6-ylamino)cyclohexanol] | 100 to 500 nM
29 | COc1ccc(Nc2ccc3ncc(-c4cc5ncccc5s4)n3n2)cc1OC [Compound 208, N-(3,4-dimethoxyphenyl)-3-(thieno[3,2-b]pyridin-2-yl)imidazo[1,2-b]pyridazin-6-amine] | < 5000 nM
30 | O[C@H]1CC[C@H](Nc2ccc3ncc(-c4cc5ncccc5s4)n3n2)CC1 [Compound 209, trans-4-(3-(thieno[3,2-b]pyridin-2-yl)imidazo[1,2-b]pyridazin-6-ylamino)cyclohexanol] | 500 to 1000 nM
31 | COc1ccc(Nc2ccc3ncc(-c4cc5cncc(OC)c5s4)n3n2)cc1OC [Compound 210, N-(3,4-dimethoxyphenyl)-3-(7-methoxythieno[3,2-c]pyridin-2-yl)imidazo[1,2-b]pyridazin-6-amine] | < 5000 nM
32 | COc1ccc(Nc2ccc3ncc(-c4cc5cncc(O)c5s4)n3n2)cc1OC [Compound 211, 2-(6-(3,4-dimethoxyphenylamino)imidazo[1,2-b]pyridazin-3-yl)thieno[3,2-c]pyridin-7-ol] | < 5000 nM
33 | COc1ccc(N(C)c2ccc3ncc(-c4cc5cncc(OC)c5s4)n3n2)cc1OC [Compound 212, N-(3,4-dimethoxyphenyl)-3-(7-methoxythieno[3,2-c]pyridin-2-yl)-N-methylimidazo[1,2-b]pyridazin-6-amine] | < 5000 nM
34 | COc1cncc2cc(-c3cnc4ccc(N[C@H]5CC[C@H](O)CC5)nn34)sc12 [Compound 213, trans-4-(3-(7-methoxythieno[3,2-c]pyridin-2-yl)imidazo[1,2-b]pyridazin-6-ylamino)cyclohexanol] | < 100 nM
35 | COc1ccc(Nc2ccc3ncc(-c4cc5cncc(C)c5s4)n3n2)cc1OC [Compound 214, N-(3,4-dimethoxyphenyl)-3-(7-methylthieno[3,2-c]pyridin-2-yl)imidazo[1,2-b]pyridazin-6-amine] | 100 to 500 nM
36 | Cc1cncc2cc(-c3cnc4ccc(N[C@H]5CC[C@H](O)CC5)nn34)sc12 [Compound 215, trans-4-(3-(7-methylthieno[3,2-c]pyridin-2-yl)imidazo[1,2-b]pyridazin-6-ylamino)cyclohexanol] | < 100 nM
37 | CO[C@H]1CC[C@H](Nc2ccc3ncc(-c4cc5cncc(C)c5s4)n3n2)CC1 [Compound 216] | 100 to 500 nM
38 | COc1cncc2cc(-c3cnc4ccc(N[C@H]5CC[C@H](OC)CC5)nn34)sc12 [Compound 217] | 100 to 500 nM
